Where a name gives a salt, the structure may show the parent alone.

We go through 7 molecules from US20250059199A1, “SOLID FORMS OF A TYK2 INHIBITOR, METHOD OF PREPARATION, AND USE THEREOF” (BeiGene Switzerland GmbH, priority 2021, published 2025).

The nature of data set [1]: Physicochemical stability of Compound 1 Form A (equilibration, evaporation, anti-solvent, DSC heating-cooling cycle experiments). The note with it: equilibration at 25° C. (18 solvent systems) and 50° C. (19), slow and fast evaporation.
A short description of data set [2]: Solubility in aqueous pH buffers and bio-relevant solutions. It counts as physicochemical. To be noted: for solubility: in some solvent systems (summary statement). How it is done:
Solubility of the Compound 1 mesylate Form C, phosphate Form A, maleate Form A, and fumarate Form B was measured in 6 aqueous pH buffers and bio-relevant solutions including pH 1.2 HCl solution (0.1 N), pH 4.5 acetate buffer (50 mM), water, pH 2.0 SGF, pH 6.5 FaSSIF-v1, and pH 5.0 FeSSIF-v1 at 37° C. for 1 h and 2 h. Residual solids after the solubility test were analyzed by XRPD.

Data set [3] is described as follows: Hygroscopicity by dynamic vapor sorption (DVS) test. The note with it: for Form and crystallinity after the DVS test: after DVS at 25° C.; for hygroscopicity: DVS at 25° C.; for water absorbed: from 40% RH to 95% RH at 25° C. The format is physicochemical. The protocol: It absorbed about 1.1% water from 40% RH to 95% RH at 25° C. […] It absorbed about 2.3% water from 40% RH to 95% RH at 25° C. […] It absorbed about 0.4% water from 40% RH to 95% RH at 25° C. […] It absorbed about 0.29% water from 40% RH to 95% RH at 25° C. […] It absorbed about 0.14% water from 40% RH to 95% RH at 25° C. After the DVS test.

The next data set can be described thus: PK exposure. The format is in vivo. The note with it: summary statement, method not given.
The nature of a further data set: Bulk stability. It counts as physicochemical. The note with it: 1 week. The protocol:
Bulk stability of Compound 1 mesylate Form C, phosphate Form A, maleate Form A, fumarate Form B was investigated under 25° C./60% RH in an open container and under 40° C./75% RH in an open container over 1 week. Bulk stability of Compound 1 hydrochloride Form C and Form D, were evaluated under 25° C./60% RH in an open container, under 40° C./75% RH in an open container, and at 60° C. in a tight container over 1 week.

Data set [4] can be described thus: Feasibility of Formulation process (compression, dry grinding, granulation simulation). The format is physicochemical. The note with it: for tolerance to compression, dry grinding, granulation simulation: compression at 2, 5, 10 and 20 MPa, Form change and crystallinity. How it is done: Feasibility of Formulation process for Compound 1 mesylate Form C, phosphate Form A, maleate Form A, fumarate Form B hydrochloride Form C, and hydrochloride Form D were evaluated by compression (at 2 MPa, 5 MPa, 10 MPa, and 20 MPa), dry grinding, and granulation simulation experiments.

For `CC(=O)Nc1cc(Nc2cc(C3CCOCC3)cc(S(C)(=O)=O)n2)c(-c2ccc3c(n2)OCC(C)(C)O3)cn1` [Compound 1 Form A, N-(5-(2,2-dimethyl-2,3-dihydro-[1,4]dioxino[2,3-b]pyridin-6-yl)-4-((6-(methylsulfonyl)-4-(tetrahydro-2H-pyran-4-yl)pyridin-2-yl)amino)pyridin-2-yl)acetamide], the “physicochemical stability (crystalline Form after the experiments)” value in data set [1] was “still kept the same Form”.
As usually defined, the solubility is how much of the substance goes into solution per volume. A lower solubility goes with a poorly soluble substance. Consider `CC(=O)Nc1cc(Nc2cc(C3CCOCC3)cc(S(C)(=O)=O)n2)c(-c2ccc3c(n2)OCC(C)(C)O3)cn1` [Compound 1 fumarate Form B, N-(5-(2,2-dimethyl-2,3-dihydro-[1,4]dioxino[2,3-b]pyridin-6-yl)-4-((6-(methylsulfonyl)-4-(tetrahydro-2H-pyran-4-yl)pyridin-2-yl)amino)pyridin-2-yl)acetamide], for which the “residual solids after the solubility test (XRPD)” value in data set [2] (SGF) is on record as “remained unchanged”. Further, the solubility entry in data set [2] is “relatively high solubility”. Besides, the “DVS behaviour of the potential hydrate” value in data set [3] (RH<70%, 25° C.) is “underwent dehydration when RH<70% and returns back to the anhydrate”. Moreover, in data set [3], the “Form and crystallinity after the DVS test” value (“Form and crystallinity” for short) is given as “still Compound 1 fumarate Form B”. Further, the DVS behaviour entry in data set [3] (from 0% RH to 40% RH, 25° C.) is “stable”; in data set [3] (relative humidity above 40%, 25° C.), “started to absorb water when relative humidity was above 40% and converted to a potential hydrate”. Moreover, the PK exposure entry in the data set “PK exposure” was “good PK exposure”. Also, the bulk stability result is “physically and chemically stable” in the data set “Bulk stability” (25° C./60% RH, open container); “physically and chemically stable” in “Bulk stability” (40° C./75% RH, open container). For the same molecule, the “Form after dry grinding and compression” value in data set [4] (dry grinding and compression) is recorded as “showed Form change”.
Consider `CC(=O)Nc1cc(Nc2cc(C3CCOCC3)cc(S(C)(=O)=O)n2)c(-c2ccc3c(n2)OCC(C)(C)O3)cn1` [Compound 1 hydrochloride Form C, N-(5-(2,2-dimethyl-2,3-dihydro-[1,4]dioxino[2,3-b]pyridin-6-yl)-4-((6-(methylsulfonyl)-4-(tetrahydro-2H-pyran-4-yl)pyridin-2-yl)amino)pyridin-2-yl)acetamide], for which, in data set [3], the hygroscopicity entry is “slightly hygroscopic”; the “Form and crystallinity” value was “No Form changed”; the water absorbed entry was “about 0.29%”. The bulk stability result in the data set “Bulk stability” (25° C./60% RH, open container) is “physically and chemically stable”. Also, the bulk stability result in “Bulk stability” (40° C./75% RH, open container) was “physically and chemically stable”. Moreover, the bulk stability entry in “Bulk stability” (60° C., tight container) is “physically and chemically stable”. Moreover, the tolerance to compression entry in data set [4] (compression) is “good tolerance to compression with no Form change and no obvious crystallinity decrease”. Moreover, the “tolerance to compression, dry grinding, granulation simulation” value (“tolerance to compression, dry grinding” for short) in data set [4] is listed as “good tolerance”. Further, the “XRPD peaks after compression” value in data set [4] (compression at 5 MPa, 10 MPa, and 20 MPa) is recorded as “became slightly broad”.
Take `CC(=O)Nc1cc(Nc2cc(C3CCOCC3)cc(S(C)(=O)=O)n2)c(-c2ccc3c(n2)OCC(C)(C)O3)cn1` [Compound 1 hydrochloride Form D, N-(5-(2,2-dimethyl-2,3-dihydro-[1,4]dioxino[2,3-b]pyridin-6-yl)-4-((6-(methylsulfonyl)-4-(tetrahydro-2H-pyran-4-yl)pyridin-2-yl)amino)pyridin-2-yl)acetamide]: the hygroscopicity entry in data set [3] was “non-hygroscopic”. Also, the “Form and crystallinity” value in data set [3] is “No Form changed”. Further, in data set [3], the water absorbed entry is “about 0.14%”. Moreover, the bulk stability result is “physically and chemically stable” in the data set “Bulk stability” (25° C./60% RH, open container); “physically and chemically stable” in “Bulk stability” (40° C./75% RH, open container); “physically and chemically stable” in “Bulk stability” (60° C., tight container). Moreover, the “tolerance to compression, dry grinding” value in data set [4] is recorded as “good tolerance”. For the same molecule, the “XRPD peaks after compression” value in data set [4] (compression under 5 MPa and 10 MPa) is on record as “became slightly broad”.
For `CC(=O)Nc1cc(Nc2cc(C3CCOCC3)cc(S(C)(=O)=O)n2)c(-c2ccc3c(n2)OCC(C)(C)O3)cn1` [Compound 1 maleate Form A, N-(5-(2,2-dimethyl-2,3-dihydro-[1,4]dioxino[2,3-b]pyridin-6-yl)-4-((6-(methylsulfonyl)-4-(tetrahydro-2H-pyran-4-yl)pyridin-2-yl)amino)pyridin-2-yl)acetamide], in data set [2], the solubility entry is listed as “relatively high solubility”. For the same molecule, in data set [3], the hygroscopicity result is recorded as “slightly hygroscopic”; the “Form and crystallinity” value is “No Form and crystallinity changed”; the water absorbed entry is on record as “about 0.4%”. Further, the PK exposure entry in “PK exposure” is “good PK exposure”. The bulk stability result in “Bulk stability” (25° C./60% RH, open container) is “physically and chemically stable”. In addition, the bulk stability result in “Bulk stability” (40° C./75% RH, open container) is “physically and chemically stable”. Further, the “tolerance to compression, dry grinding” value in data set [4] is on record as “good tolerance”.
On to `CC(=O)Nc1cc(Nc2cc(C3CCOCC3)cc(S(C)(=O)=O)n2)c(-c2ccc3c(n2)OCC(C)(C)O3)cn1` [Compound 1 mesylate Form C, N-(5-(2,2-dimethyl-2,3-dihydro-[1,4]dioxino[2,3-b]pyridin-6-yl)-4-((6-(methylsulfonyl)-4-(tetrahydro-2H-pyran-4-yl)pyridin-2-yl)amino)pyridin-2-yl)acetamide], for which, in data set [2], the solubility result is listed as “relatively high solubility”. In addition, in data set [3], the hygroscopicity result was “slightly hygroscopic”; the “Form and crystallinity” value was “No Form and crystallinity changed”; the water absorbed entry was “about 1.1%”. Also, the PK exposure entry in “PK exposure” was “good PK exposure”. Besides, in the data set “Bulk stability” (25° C./60% RH, open container), the bulk stability entry is “physically and chemically stable”. In the data set “Bulk stability” (40° C./75% RH, open container), the bulk stability entry was “physically and chemically stable”. Also, in data set [4], the “tolerance to compression, dry grinding” value was “good tolerance”.
For `CC(=O)Nc1cc(Nc2cc(C3CCOCC3)cc(S(C)(=O)=O)n2)c(-c2ccc3c(n2)OCC(C)(C)O3)cn1` [Compound 1 phosphate Form A, N-(5-(2,2-dimethyl-2,3-dihydro-[1,4]dioxino[2,3-b]pyridin-6-yl)-4-((6-(methylsulfonyl)-4-(tetrahydro-2H-pyran-4-yl)pyridin-2-yl)amino)pyridin-2-yl)acetamide], the solubility result in data set [2] is on record as “relatively high solubility”. In data set [2] (pH 2, simulated gastric fluid, thermodynamic from solid, SGF, 37° C., at 1 h), the solubility at 1 h was ~0.74 mg/mL. Also, in data set [3], the hygroscopicity entry is recorded as “slightly hygroscopic”; the “Form and crystallinity” value was “No Form and crystallinity change”; the water absorbed entry is reported as “about 2.3%”. Also, the PK exposure result in “PK exposure” is given as “good PK exposure”. The bulk stability entry in the data set “Bulk stability” (25° C./60% RH, open container) was “physically and chemically stable”. Moreover, the bulk stability result in “Bulk stability” (40° C./75% RH, open container) was “physically and chemically stable”. In addition, the “tolerance to compression, dry grinding” value in data set [4] is given as “good tolerance”.
